# Measurements: ChEMBL document CHEMBL6092194, “Development of membrane-targeting chalcone derivatives as antibacterial agents against multidrug-resistant bacteria” (Eur J Med Chem, 2024)
# Active and inactive are the calls of the source. No cut-off for these calls is given here.
# Tests used:
# [1] = system: Staphylococcus aureus; assay: Antibacterial activity against Staphylococcus aureus ATCC43300 infected in sepsis mouse model assessed as reduction in inflammatory cell infiltration in kidney at 10 mg/kg pre-infected with bacteria for 1 hrs followed by compound administration at 12 hrs interval for 2 days by H and E staining based analysis; assay type: functional, organism-based; settings: time 2.0 day
# [2] = system: Staphylococcus aureus; assay: Antibacterial activity against Staphylococcus aureus ATCC43300 infected in sepsis mouse model assessed as reduction in spleen inflammation at 5 to 10 mg/kg pre-infected with bacteria for 1 hrs followed by compound administration at 12 hrs interval for 2 days by H and E staining based analysis; assay type: functional, organism-based; settings: dose 5-10 mg/kg, time 2.0 day
# [3] = system: Staphylococcus aureus; assay: Antibacterial activity against Staphylococcus aureus ATCC43300 infected in sepsis mouse model assessed as log reduction in bacterial load in spleen at 10 mg/kg pre-infected with bacteria for 1 hrs followed by compound administration at 12 hrs interval for 2 days relative to control; assay type: functional; settings: time 2 day
# [4] = system: Cell membrane; assay: Disruption of cell membrane in Staphylococcus aureus ATCC43300 assessed as appearance of blue fluorescence by DAPI staining based fluorescence microscopic analysis
# [5] = system: Cell membrane; assay: Induction of outer membrane permeabilization in Escherichia coli ATCC25922 assessed as increase in fluorescence intensity incubated for 20 mins by NPN uptake assay; assay type: subcellular; settings: dose 0.5-8 µg/ml
# [6] = system: Escherichia coli; assay: Disruption of preformed biofilm in Escherichia coli ATCC25922 assessed as eradication of biofilm at 8 microg/ml relative to control; assay type: functional; settings: dose 8 µg/ml
# [7] = system: Staphylococcus aureus; assay: Antibiofilm activity against Staphylococcus aureus ATCC43300 assessed as inhibition of biofilm formation; assay type: functional, organism-based
# [8] = system: Staphylococcus aureus; assay: Selectivity ratio of MBC for Staphylococcus aureus ATCC43300 in presence of 50% serum to MBC for Staphylococcus aureus ATCC43300 in Mueller Hinton Broth; assay type: functional
# [9] = system: Staphylococcus aureus; assay: Antibacterial activity against Staphylococcus aureus ATCC43300 infected in sepsis mouse model assessed as log reduction in bacterial load in liver at 10 mg/kg pre-infected with bacteria for 1 hrs followed by compound administration at 12 hrs interval for 2 days relative to control; assay type: functional; settings: time 2 day
# [10] = system: Staphylococcus aureus; assay: Antibacterial activity against Staphylococcus aureus ATCC43300 infected in sepsis mouse model assessed as reduction in kidney damage at 5 to 10 mg/kg pre-infected with bacteria for 1 hrs followed by compound administration at 12 hrs interval for 2 days by H and E staining based analysis; assay type: functional, organism-based; settings: dose 5-10 mg/kg, time 2.0 day
# [11] = system: Escherichia coli; assay: Induction of morphological changes in Escherichia coli ATCC25922 assessed as rough appearance of cell membrane by scanning electron microscopic analysis; assay type: functional, organism-based
# [12] = system: Staphylococcus aureus; assay: Bactericidal activity against Staphylococcus aureus ATCC43300 measured upto 24 hrs by time-kill kinetics assay; assay type: functional, organism-based; settings: dose 1-8 µg/ml
# [13] = system: Pseudomonas aeruginosa; assay: Antibacterial activity against penicillin-susceptible Pseudomonas aeruginosa ATCC27853 by broth microdilution method; assay type: functional
# [14] = system: Staphylococcus aureus; assay: Antibacterial activity against Staphylococcus aureus ATCC43300 infected in sepsis mouse model assessed as reduction in spleen damage at 5 to 10 mg/kg pre-infected with bacteria for 1 hrs followed by compound administration at 12 hrs interval for 2 days by H and E staining based analysis; assay type: functional, organism-based; settings: dose 5-10 mg/kg, time 2.0 day
# [15] = Hemolytic activity in red blood cells (unknown origin); assay type: toxicity, cell-based, Erythrocyte
# [16] = system: Staphylococcus aureus; assay: Induction of morphological changes in Staphylococcus aureus ATCC43300 assessed as collapse of cell membrane by scanning electron microscopic analysis; assay type: functional, organism-based
# [17] = system: Staphylococcus aureus; assay: Bactericidal activity against Staphylococcus aureus ATCC43300 in presence of 50% serum; assay type: functional
# [18] = system: Cell membrane; assay: Induction of cytoplasmic membrane depolarization in Staphylococcus aureus ATCC43300 assessed as increase in fluorescence intensity at 0.5 microg/ml measured after 24 mins by DiSC3(5) dye-based fluorescence assay; settings: dose 0.5 µg/ml
# [19] = system: Staphylococcus aureus; assay: Antibacterial activity against penicillin-resistant Staphylococcus aureus ATCC43300 by broth microdilution assay; assay type: functional
# [20] = system: Cell membrane; assay: Disruption of cell membrane in Escherichia coli ATCC25922 assessed as appearance of red fluorescence by PI staining based fluorescence microscopic analysis; assay type: subcellular
# [21] = system: Escherichia coli; assay: Antibacterial activity against Escherichia coli ATCC25922 infected in sepsis mouse model assessed as reduction in spleen damage at 5 to 10 mg/kg pre-infected with bacteria for 1 hrs followed by compound administration at 12 hrs interval for 2 days by H and E staining based analysis; assay type: functional, organism-based; settings: dose 5-10 mg/kg, time 2.0 day
# [22] = system: Bacillus subtilis; assay: Antibacterial activity against penicillin-susceptible Bacillus subtilis ATCC9372 by broth microdilution assay; assay type: functional
# [23] = Toxicity in ip dosed BALB/c mouse assessed as maximum tolerated dose measured after 7 days; assay type: organism-based; settings: in vivo, time 7 day
# [24] = system: Staphylococcus aureus; assay: Drug resistance, ratio of MIC for Staphylococcus aureus ATCC43300 measured after 20 passages to MIC for Staphylococcus aureus ATCC43300 measured after first exposure; assay type: functional
# [25] = system: Escherichia coli; assay: Antibacterial activity against Escherichia coli ATCC25922 infected in sepsis mouse model assessed as log reduction in bacterial load in liver at 5 mg/kg pre-infected with bacteria for 1 hrs followed by compound administration at 12 hrs interval for 2 days relative to control; assay type: functional; settings: time 2 day
# [26] = system: Staphylococcus aureus; assay: Disruption of preformed biofilm in Staphylococcus aureus ATCC43300 assessed as eradication of biofilm at 8 microg/ml relative to control; assay type: functional; settings: dose 8 µg/ml
# [27] = Ratio of MBC for Staphylococcus aureus ATCC43300 measured after 6 hrs in presence of 50% plasma to MBC for Staphylococcus aureus ATCC43300 in Mueller Hinton Broth; assay type: functional
# [28] = system: Staphylococcus aureus; assay: Bactericidal activity against Staphylococcus aureus ATCC43300 assessed as elimination of bacteria at 8 microg/ml measured within 6 hrs by time-kill kinetics assay relative to control; assay type: functional; settings: dose 8 µg/ml
# [29] = system: Escherichia coli; assay: Antibacterial activity against Escherichia coli ATCC25922 infected in sepsis mouse model assessed as log reduction in bacterial load in kidney at 5 mg/kg pre-infected with bacteria for 1 hrs followed by compound administration at 12 hrs interval for 2 days relative to control; assay type: functional; settings: time 2 day
# [30] = system: Escherichia coli; assay: Bactericidal activity against Escherichia coli ATCC25922 in presence of 50% plasma; assay type: functional
# [31] = system: Escherichia coli; assay: Bactericidal activity against Escherichia coli ATCC25922 measured upto 24 hrs by time-kill kinetics assay; assay type: functional, organism-based; settings: dose 1-8 µg/ml
# [32] = system: Staphylococcus aureus; assay: Antibacterial activity against Staphylococcus aureus ATCC43300 infected in sepsis mouse model assessed as log reduction in bacterial load in blood at 10 mg/kg pre-infected with bacteria for 1 hrs followed by compound administration at 12 hrs interval for 2 days relative to control; assay type: functional; settings: time 2 day
# [33] = system: Escherichia coli; assay: Antibiofilm activity against Escherichia coli ATCC25922 assessed as inhibition of biofilm formation at 8 microg/ml relative to control; assay type: functional
# [34] = system: Escherichia coli; assay: Antibacterial activity against Escherichia coli ATCC25922 infected in sepsis mouse model assessed as reduction in kidney damage at 5 to 10 mg/kg pre-infected with bacteria for 1 hrs followed by compound administration at 12 hrs interval for 2 days by H and E staining based analysis; assay type: functional, organism-based; settings: dose 5-10 mg/kg, time 2.0 day
# [35] = system: Escherichia coli; assay: Antibacterial activity against Escherichia coli ATCC25922 measured after 20 passages; assay type: functional, organism-based
# [36] = system: Escherichia coli; assay: Induction of morphological changes in Escherichia coli ATCC25922 assessed as disruption of cell membrane by scanning electron microscopic analysis; assay type: functional, organism-based
# [37] = system: Escherichia coli; assay: Antibiofilm activity against Escherichia coli ATCC25922 assessed as inhibition of biofilm formation; assay type: functional, organism-based
# [38] = system: Cell membrane; assay: Disruption of cell membrane in Staphylococcus aureus ATCC43300 assessed as appearance of red fluorescence by PI staining based fluorescence microscopic analysis
compound,measurement,setting,value
CCCCCCOc1cc[n+](CCCOc2ccc(/C=C/C(=O)c3ccc(OCCC[n+]4ccc(OCCCCCC)cc4)cc3)cc2)cc1.[Br-].[Br-],Activity,[1],inactive
same,Activity,[2],Active
same,log(activity),[3],1.52
same,Activity,[4],Active
same,Activity,[5],Dose-dependent-effect
same,Activity,[6],41.61%
same,Activity,[7],Dose-dependent-effect
same,Ratio,[8],< 2
same,log(activity),[9],2.13
same,Activity,[10],Active
same,Activity,[11],Active
same,Activity,[12],Dose-dependent-effect
same,MIC,[13],32 µg/mL
same,Activity,[14],Active
same,HC50,[15],329 µg/mL
same,Activity,[16],Active
same,MBC,[17],16 µg/mL
same,Activity,[18],Not active; Fluorescence Intensity Remained Comparable To Negative Control
same,MIC,[19],0.5 µg/mL
same,Activity,[20],Active
same,Activity,[21],Active
same,MIC,[22],1 µg/mL
same,MTD at 168 h,[23],50 mg/kg
same,Ratio,[24],4
same,log(activity),[25],2.52
same,Activity,[26],20.8%
same,Ratio,[27],<4
same,Activity,[28],100%
same,log(activity),[29],1.65
same,MBC,[30],8 µg/mL
same,Activity,[31],Dose-dependent-effect
same,log(activity),[32],1.61
same,inhibition at 8 µg/mL,[33],48.7%
same,Activity,[34],Active
same,Activity,[35],Active
same,Activity,[36],Active
same,Activity,[37],Dose-dependent-effect
same,Activity,[38],Active
